In patent publication US20160220574A1, “NSAID AND SIGMA RECEPTOR LIGAND COMBINATIONS” (LABORATORIOS DEL DR. ESTEVE, S.A., priority 2013, published 2016):
Where two headings read alike, the source gives them in different places.

Columns and labels:
[1] = system: mechanical allodynia of the post-operative pain model in rats; test: Mechanical allodynia (von Frey filaments) in the post-operative pain model (plantar incision) in rats; type: in vivo; conditions: for doses producing significant effect, Sigma antagonist alone: BD1063 alone 20, 40 and 80 mg/kg, compound 63.HCl alone 10, 20, 40 and 80 mg/kg
Procedure: The induction of anesthesia in rats was performed with 3% isofluran for veterinary use, employing an Ohmeda vaporizer and an anesthesia chamber. Anesthesia was kept during the surgical operation by a tube which directs the isofluran vapors to the animal's snout. Once the rats were anesthetized, they were laid down in a prone position and their right hind paws were cleaned out with alcohol. Then, a skin incision in the hindpaw of about 10 mm was made by means of a scalpel, starting about 5 mm from the heel and extending toward the toes. Fascia was located and by means of curve scissors muscle was elevated and a longitudinal incision of about 5 mm was made, thus the muscle origin and insertion remained intact. The skin of the paw was stitched with a suturing stitch with breaded silk (3.0) and the wound was cleaned out with povidone. The assessment was performed 30 minutes after the administration of product and always 4 hours after the plantar incision. The analysis was carried out evaluating the mechanical allodynia. It was tested using von Frey filaments: Animals were placed in methacrylate cylinders on an elevated surface, with metallic mesh floor perforated in order to apply the filaments. […] The animal's response to pain was manifested by the withdrawal of the paw as a consequence of the painful stimulus caused by a filament.

σ1 receptors = conditions: rodent brain membranes and human neuroblastoma cells, cited from earlier work
D2 receptors = conditions: rodent brain membranes and human neuroblastoma cells; compared with haloperidol; cited from earlier work
sigma-1 receptors = conditions: both in experimental animals and human cells; cited from earlier work

In the case of `CN1CCN(CCc2ccc(Cl)c(Cl)c2)CC1` [BD1063, 1-[2-(3,4-dichlorophenyl)ethyl]-4-methylpiperazine], the ED50 ([1]; Rattus norvegicus, rats, compound alone, administered 3.5 hours after surgery, assessed 30 minutes after administration, 4 hours after plantar incision, read-out: ED50 (dose-dependent effect), Sigma antagonist alone) was 56.2 mg/kg and the “doses producing significant effect, Sigma antagonist alone” value ([1]; rats) was “significant effect only at 40 and 80 mg/kg”.

With `Cc1ccc(-c2cc(C(F)(F)F)nn2-c2ccc(S(N)(=O)=O)cc2)cc1` [Celecoxib] the “Mean of the porcentage of analgesia in the post-operative pain model, Compounds alone” value (“Mean of the porcentage of analgesia” below) ([1]; dose 0.625 mg/kg) was 13% and the “effect of NSAID alone” value ([1]; rats, NSAID alone 0.625 mg/kg) was “no significant effect”.

In the case of `O=C(O)Cc1ccccc1Nc1c(Cl)cccc1Cl` [Diclofenac], the “Mean of the porcentage of analgesia” value ([1]; dose 0.625 mg/kg) was 13% and the “effect of NSAID alone” value ([1]; rats, NSAID alone 0.312 mg/kg) was “no significant effect”.

In the case of `CC(C)Cc1ccc(C(C)C(=O)O)cc1` (centres unmarked) [Ibuprofen], the “Mean of the porcentage of analgesia” value ([1]; dose 0.625 mg/kg) was 16% and the “effect of NSAID alone” value ([1]; rats, NSAID alone 0.625 mg/kg) was “no significant effect”.

For `Cc1c(N(C)CS(=O)(=O)O)c(=O)n(-c2ccccc2)n1C` [Metamizole], the “Mean of the porcentage of analgesia” value ([1]; dose 0.156 mg/kg) was 14% and the “effect of NSAID alone” value ([1]; rats, NSAID alone 0.156 mg/kg) was “no significant effect”.

With `COc1ccc2cc([C@H](C)C(=O)O)ccc2c1` [Naproxen] the “Mean of the porcentage of analgesia” value ([1]; dose 0.312 mg/kg) was 13% and the “effect of NSAID alone” value ([1]; rats, NSAID alone 0.312 mg/kg) was “no significant effect”.

With `CC(=O)Nc1ccc(O)cc1` [Paracetamol] the “Mean of the porcentage of analgesia” value ([1]; dose 20 mg/kg) was 13% and the “effect of NSAID alone” value ([1]; rats, NSAID alone 20 mg/kg) was “no significant effect”.

In the case of `Cc1cc(OCCN2CCOCC2)nn1-c1ccc2ccccc2c1` [compound 63, 4-{2-[5-Methyl-1-(naphthalen-2-yl)-1H-pyrazol-3-yloxy]ethyl}morpholine], the “Mean of the porcentage of analgesia” value ([1]; dose 10 mg/kg) was 2%, the “Mean of the porcentage of analgesia” value ([1]; dose 20 mg/kg) was 15% and the “Mean of the porcentage of analgesia” value ([1]; dose 40 mg/kg) was 43%. For the same compound, the “Mean of the porcentage of analgesia” value ([1]; dose 80 mg/kg) was 41%.

With `Cc1cc(OCCN2CCOCC2)nn1-c1ccc2ccccc2c1.Cl` [compound 63.HCl, 4-{2-[5-Methyl-1-(naphthalen-2-yl)-1H-pyrazol-3-yloxy]ethyl}morpholine hydrochloride] the “doses producing significant effect, Sigma antagonist alone” value ([1]; rats) was “significant effect only at 40 and 80 mg/kg” and the “maximum effect / maximum efficacy, Sigma antagonist alone” value ([1]; rats, compound alone (10, 20, 40 and 80 mg/kg), without sub-active dose of NSAID, 3.5 hours after surgery) was 43%.

In the case of `OC1(c2ccc(Cl)cc2)CCNCC1` [metabolite I, 4-(4-chlorophenyl)-4-hydroxypiperidine], the “affinity for σ1 (sigma-1) receptors” value (σ1 receptors) is given as “less affinity than haloperidol” and the “affinity for D2 receptors” value (D2 receptors) is given as “no affinity”.

For `OC(CCCN1CCC(O)(c2ccc(Cl)cc2)CC1)c1ccc(F)cc1` (centres unmarked) [metabolite II, 4-(4-chlorophenyl)-[…]-(4-fluorophenyl)-4-hydroxy-1-piperidinebutanol], the “blockade of sigma-1 receptors” value (sigma-1 receptors) is given as “irreversible blockade”, the “affinity for σ1 (sigma-1) receptors” value (σ1 receptors) is given as “less affinity than haloperidol” and the “affinity for σ1 (sigma-1) receptors” value (σ1 receptors; listed as Reduced haloperidol) is given as “high affinity (in the low nanomolar range)”. For the same compound, the “affinity for D2 receptors” value (D2 receptors) was “much lower”.
